Test results reported in patent US20240408064A1, “RAS INHIBITORS, COMPOSITIONS AND METHODS OF USE THEREOF” (GENETOLEAD INC., priority 2021, published 2024).
“Also recorded” adds a separate entry of the source.

Key:
[1] = molecular target: T1, HRas^G12V (Homo sapiens (Human), UniProt P01112, G12V); assay: 19F DLB (ligand-observed 19F NMR) score; format: binding; set-up: scale not given here
Protocol: (§1) All NMR experiments were collected using 3 mm NMR tubes on a 600 MHz Bruker Avance III spectrometer equipped with a QCI helium cryoprobe and a SampleJet sample changer. The buffer used for NMR experiments was 25 mM sodium phosphate pH 7.4, 150 mM NaCl, 5 mM MgCl2, 1 mM TCEP-d16, 10% D2O. Data were processed using Bruker TopSpin.
(§2) Since the fragment library was curated using phosphate buffer, 25 mM sodium phosphate pH 7.4, 150 mM NaCl, 5 mM MgCl2, 1 mM TCEP-d16, 10% D2O Fresh TCEP was used for experiments. Screening was performed using ^1H-decoupled 1D ^19F experiment Bruker experiment (zgfhigqn.2) with 64 scans and a relaxation delay of 5 seconds. 50 μM HRas^G12V and 240 μM of each fragment in pools (mixtures) were used.
Hit confirmation was performed using the same ^19F experiment as the screen. Ligand-observed 1D ^1H, protein-observed 1D ^1H, ^1H T2-CPMG as well as Saturation Transfer Difference (STD) experiments were also run on the same samples. Ligand-observed 1D ^1H was run using the standard Bruker sequence with excitation sculpting (zgesgp) with a relaxation delay of 10 seconds and 16 scans per spectrum. Protein-observed 1D ^1H was performed using the same sequence with a relaxation delay of 1 second and 256 scans in order to increase the signal-to-noise of the protein resonances, while keeping the experimental time relatively short. The ^1H T2-CPMG experiment employed a modified version of the Bruker 1D ^1H zgesgp experiment with the addition of a CPMG pulse train after the first 90° excitation pulse. Total duration for each spin echo was fixed at 1 ms (τ=500 μs), while the number of echoes in the pulse train was varied according to the total time (T). The number of scans for each spectrum was 4 and eight delay times were run on each sample, ranging from 1 ms to 800 ms. […]

[2] = molecular target: T1, HRas^G12V; assay: Overall binding/activity in the various assays (NMR consensus binding)
Protocol: as §2
(§3) Hit confirmation was performed using the same ^19F experiment as the screen. Ligand-observed 1D ^1H, protein-observed 1D ^1H, ^1H T2-CPMG as well as Saturation Transfer Difference (STD) experiments were also run on the same samples. Ligand-observed 1D ^1H was run using the standard Bruker sequence with excitation sculpting (zgesgp) with a relaxation delay of 10 seconds and 16 scans per spectrum. Protein-observed 1D ^1H was performed using the same sequence with a relaxation delay of 1 second and 256 scans in order to increase the signal-to-noise of the protein resonances, while keeping the experimental time relatively short. The ^1H T2-CPMG experiment employed a modified version of the Bruker 1D ^1H zgesgp experiment with the addition of a CPMG pulse train after the first 90° excitation pulse. Total duration for each spin echo was fixed at 1 ms (τ=500 μs), while the number of echoes in the pulse train was varied according to the total time (T). The number of scans for each spectrum was 4 and eight delay times were run on each sample, ranging from 1 ms to 800 ms.
STD experiments consisted of two independent spectra with offsets of 0 ppm (on resonance) and −20 ppm (off resonance). […] 160 scans were acquired for each spectrum.
The results obtained with the compounds in the various assays described above are depicted in Table 21.
Because of its power to probe the intrinsically weak interactions (Kd) between targets and low-molecular weight fragments, NMR fragment-based lead discovery (FBLD) is a very useful biophysical method in early stage drug discovery, especially for challenging target proteins; including those with shallow binding pockets. Since FBLD screens are performed using low-molecular weight compounds (fragments) with lower structural complexity, the same chemical space can be covered using a smaller number of drug-like fragments versus use of large libraries of higher-molecular weight lead-like compounds as in high throughput screening (HTS) campaigns. Therefore, FBLD has a much higher hit rate than HTS using only several hundred to several thousand compounds in comparison with approximately 1 million compounds for HTS. Also, the small size of the compounds screened in FBLD means a better chance to fully match the interactions with small or transient pockets within the target protein, where these less tractable pockets cannot be accessed with standard classical HTS methods. […] We expect this methodology to be more advantageous than classical HTS methods for expediting the time from hit to lead (H2L) and allows for rapid access to high quality leads with lower attrition rates in subsequent lead optimization (LO) campaigns toward pre-clinical candidate selection. FBLD screening by NMR involves a “consensus binding” approach where several distinct NMR experiments (DLB, STD, CPMG) are applied along with a free-state aggregation detection method (T2-CPMG) to rank the compounds for their affinity to the receptor (HRAS in this case) whilst simultaneously monitoring the solution behavior and critical quality attributes of each compound. The latter helps to eliminate artifact binders which are highly problematic. We performed a fluorine screen involving 461 compounds that were derived from a highly curated fragment library. Moreover, two-dimensional ^15N HSQC NMR was also used to validate ligand-binding sites on the target protein. In addition, we employed protein-detected biophysical measurements were employed to determine fragment binding affinities to the target protein (Kd) by HSQC NMR. […]

[3] = molecular target: T1, HRas^G12V; assay: 19F T2-CPMG NMR score; format: binding
Protocol: as §1, §2, §3
Because of its power to probe the intrinsically weak interactions (Kd) between targets and low-molecular weight fragments, NMR fragment-based lead discovery (FBLD) is a very useful biophysical method in early stage drug discovery, especially for challenging target proteins; including those with shallow binding pockets. Since FBLD screens are performed using low-molecular weight compounds (fragments) with lower structural complexity, the same chemical space can be covered using a smaller number of drug-like fragments versus use of large libraries of higher-molecular weight lead-like compounds as in high throughput screening (HTS) campaigns. Therefore, FBLD has a much higher hit rate than HTS using only several hundred to several thousand compounds in comparison with approximately 1 million compounds for HTS. Also, the small size of the compounds screened in FBLD means a better chance to fully match the interactions with small or transient pockets within the target protein, where these less tractable pockets cannot be accessed with standard classical HTS methods. […] We expect this methodology to be more advantageous than classical HTS methods for expediting the time from hit to lead (H2L) and allows for rapid access to high quality leads with lower attrition rates in subsequent lead optimization (LO) campaigns toward pre-clinical candidate selection. FBLD screening by NMR involves a “consensus binding” approach where several distinct NMR experiments (DLB, STD, CPMG) are applied along with a free-state aggregation detection method (T2-CPMG) to rank the compounds for their affinity to the receptor (HRAS in this case) whilst simultaneously monitoring the solution behavior and critical quality attributes of each compound. The latter helps to eliminate artifact binders which are highly problematic. We performed a fluorine screen involving 461 compounds that were derived from a highly curated fragment library. Moreover, two-dimensional ^15N HSQC NMR was also used to validate ligand-binding sites on the target protein. […]

Row | Compound | 19F DLB Score [1] | Activity ranking on HRas^G12V (in words) [2] | 19F T2-CPMG Score [3] | Binding to HRas^G12V (in words) [2]
1 | O=C(Cc1ccc(F)cc1)NCCc1c[nH]c2cc(F)ccc12 [Compound 10012] | 1.32 | – | 3.96 | low or no binding
2 | O=C(Cc1c[nH]c2cc(F)ccc12)NCCN1CCOCC1 [Compound 10015] | 1.57 | – | 7.79 | low or no binding
3 | COC(=O)c1ccc(NC(=O)Cc2c[nH]c3cc(F)ccc23)cc1Cl [Compound 10017] | – | – | – | low or no binding
4 | CCOC(=O)c1cccc(NC(=O)Cc2c[nH]c3cc(F)ccc23)c1 [Compound 10019] | – | – | – | low or no binding
5 | Cc1c(Cl)cc(NC(=O)Cc2c[nH]c3cc(F)ccc23)cc1Cl [Compound 10022] | – | – | – | low or no binding
6 | O=C(NCCc1c[nH]c2cc(F)ccc12)[C@@H]1CCCO1 [Compound 10023, (S)—N-(2-(6-fluoro-1H-indol-3-yl)ethyl) tetrahydrofuran-2-carboxamide] | 1.53 | – | 6.9 | low or no binding
7 | Cn1cc(CC(=O)N2CCC2)c2ccc(F)cc21 [Compound 10024, 1-(azetidin-1-yl)-2-(6-fluoro-1-methyl-1H-indol-3-yl) ethan-1-one] | 1.06 | – | 0.01 | low or no binding
8 | CN1CCC[C@@H]1C(=O)NCCc1c[nH]c2cc(F)ccc12 [Compound 10028] | 1.01 | – | 1.61 | low or no binding
9 | O=C(Cc1c[nH]c2cc(F)ccc12)NCCc1cccnc1 [Compound 10029] | 1.19 | – | 1.2 | low or no binding
10 | O=C(Cc1c[nH]c2cc(F)ccc12)NCCc1ccc(F)cc1 [Compound 10031] | 1.13 | – | 1.34 | low or no binding
11 | Cc1ccc(NC(=O)Cc2c[nH]c3cc(F)ccc23)cc1Cl [Compound 10032] | – | – | – | low or no binding
12 | COc1ccc(NC(=O)Cc2c[nH]c3cc(F)ccc23)cc1OC [Compound 10033] | – | – | – | low or no binding
13 | CCOC(=O)c1ccc(NC(=O)Cc2c[nH]c3cc(F)ccc23)c(C)c1 [Compound 10034] | 1.6 | – | −8.2 | low or no binding
14 | CN1CCC[C@H]1C(=O)NCCc1c[nH]c2cc(F)ccc12 [Compound 10036] | 1.22 | – | 2.32 | low or no binding
15 | CCOC(=O)[C@@H](C)NC(=O)Cc1c[nH]c2cc(F)ccc12 [Compound 10037] | 1.25 | – | 4.07 | low or no binding
16 | CCOC(=O)[C@H](C)NC(=O)Cc1c[nH]c2cc(F)ccc12 [Compound 10038] | 1.1 | – | 2.19 | low or no binding
17 | O=C(O)Cc1c[nH]c2c(Cl)cccc12 [Compound 11069] | – | – | – | low or no binding

Continued, values first:

Row | 19F DLB Score [1] | Activity ranking on HRas^G12V (in words) [2] | 19F T2-CPMG Score [3] | Binding to HRas^G12V (in words) [2] | Compound
18 | Non conclusive | More active | – | – | O=C(O)C[C@H](c1ccccc1F)c1c[nH]c2cc(F)ccc12 (single isomer, unassigned) [Compound 11052]
19 | 2.29 | More active; also recorded: Most active | 25.91 | – | O=C(O)C[C@@H](c1ccccc1F)c1c[nH]c2cc(F)ccc12 (single isomer, unassigned) [Compound 11053]
20 | – | – | – | low or no binding | COc1ccccc1C(=O)NCCc1c[nH]c2cc(F)ccc12 [Compound 10043]
21 | – | – | – | low or no binding | CCOC(=O)C(Cc1c[nH]c2ccccc12)NC(=O)Cc1c[nH]c2cc(F)ccc12 (centres unmarked) [Compound 10112]
22 | 16.69 | – | – | low or no binding | CCOC(=O)CC(c1ccccc1F)c1c[nH]c2cc(F)ccc12 (centres unmarked) [Compound 11045]
23 | 2.79 | – | 22.81 | – | O=C(C1CCNCC1)N1CCC(c2c[nH]c3cc(F)ccc23)CC1 [Compound 11047]
24 | Non conclusive | More active | – | – | O=C(O)CC(c1cccc(O)c1)c1c[nH]c2cc(F)ccc12 (centres unmarked) [Compound 11054]
25 | Non conclusive | More active | – | – | O=C(O)CC(c1ccc(O)cc1)c1c[nH]c2cc(F)ccc12 (centres unmarked) [Compound 11055]
26 | Non conclusive | – | – | low or no binding | CC1(C)OC(=O)C(C(c2ccc(F)cc2F)c2c[nH]c3cc(F)ccc23)C(=O)O1 (centres unmarked) [Compound 11058]
27 | – | – | – | low or no binding | CN(C)CC(=O)Nc1cccc(NC(=O)Cc2c[nH]c3cccc(Br)c23)c1 [Compound 11067]
28 | – | – | – | low or no binding | CN(C)CC(=O)Nc1cccc(NC(=O)Cc2c[nH]c3cc(Cl)ccc23)c1 [Compound 11068]
29 | – | – | – | low or no binding | CN(C)CC(=O)Nc1cccc(NC(=O)Cc2c[nH]c3c(Cl)cccc23)c1 [Compound 11070]
30 | – | – | – | low or no binding | CN(C)CC(=O)Nc1cccc(NC(=O)Cc2c[nH]c3cccc(Cl)c23)c1 [Compound 11071]
31 | 2.87 | – | 25.25 | – | CN(C)CCOC1CN(C(=O)Cc2c[nH]c3cc(F)ccc23)C1 [compound 10110]
